Measurements reported in US12084460B2, “Crystalline forms of a TLR7/TLR8 inhibitor” (NOVARTIS AG, priority 2018, dated 2024).
In brackets after ≈: the same amount, converted by molar mass. Where a name gives a salt, the structure may show the parent alone.

Columns and labels:
Assay type in all cases: physicochemical
[1] = Granulation simulation / dry grinding experiment; conditions: for form change under dry grinding: XRPD and/or DSC
Protocol: Behavior under granulation simulation experiment: The physical stability of crystalline forms A and HA were also evaluated in granulation simulation experiments. In these experiments granulating solvent was added dropwise to the crystalline form A or HA until the solid is wetted sufficiently. The mixture was then vortexed between each addition at 25° C. Alternatively, dry grinding was carried out. The crystallinity of the material (post-grinding) was re-evaluated by XRPD and/or DSC.

[2] = Solid state stability in bulk and with excipient mixtures; conditions: bulk: 1 week 80° C., 50° C., 80° C.-75% RH, 50° C.-75% RH; excipient mixtures EM1, EM2, HGC, HMPC: 2 weeks 50° C. with or without 75% RH; HPLC and XRPD
Protocol: A stability and excipient compatibility study was performed on form A and form HA. Both forms were subject to various test conditions as described below: • Test conditions in bulk: 1 week in a tight container at 80° C., 50° C., 80° C.-75% RH or 50° C.-75% RH. • Test condition with excipient mixtures (EM) • a. 1% of form A or form HA in EM1 for 2 weeks at 50° C. • b. 1% of form A or form HA in EM2 for 2 weeks at 50° C. • c. 10% of form A or form HA in crushed hard gelatin capsule (HGC) for 2 weeks at 50° C. • d. 10% of form A or form HA in crushed Hydroxypropyl Methyl Cellulose (HMPC) for 2 weeks at 50° C. • e. 1% of form A or form HA in EM1 for 2 weeks at 50° C. and 75% RH • f. 1% of form A or form HA in EM2 for 2 weeks at 50° C. and 75% RH • g. 10% of form A or form HA in crushed HGC for 2 weeks at 50° C. and 75% RH • h. 10% of form A or form HA in crushed HMPC for 2 weeks at 50° C. and 75% RH • EM1: Excipient mixture 1: Lactose spray dried (53%), Microcrystalline Cellulose (MCC) PH102 (40%), Crospovidone XL (5%), Aerosil (0.5%), Magnesium stearate (1.5%) • EM2: Excipient mixture 2: Mannitol DC (68%), MCC PH102 (26%), Ac-Di-Sol (4%), Aerosil (0.5%), Magnesium stearate (1.5%)
The degradation products were analyzed by HPLC and the sample was analyzed by XPRD to detect any changes to the solid state.

[3] = Behavior under compression (physical stability); conditions: 100 mg compressed 5 minutes at 10 tons
Protocol: Behavior under compression: The physical stability of each crystalline form (Form A or Form HA) was also evaluated.
100 mg of the crystalline form was compressed for 5 minutes at 10 tons with a hydraulic press (diameter of the tablets 8 mm). The sample was then characterized by XRPD to detect any change in the solid state.

[4] = Stability under light exposure; conditions: exposure to 1200 kLux at 25° C.
[5] = Competitive solvent equilibration of form A and form HA; conditions: 1:1 mixture of form A and form HA suspended in solvents, 25-50° C., seven days, XRPD/DVS
Protocol: Competitive equilibrations were carried out to investigate the relative stability of form A and HA in a competitive solvent equilibration. A 1:1 mixture of form A and form HA was prepared and suspended in various solvents or mixture thereof at temperature between 25° C. and 50° C. for seven days. The resulting suspension was filtered and analyzed by XRPD/DVS.

Solubility = experiment: Solubility
Protocol: Form A is highly soluble at pH values of 4.7 and below (solubility higher than 2 mg/mL), however, at higher pH levels, formation of less soluble form HA leads to lower solubility values.

[6] = Hygroscopicity / behaviour under humidity (DVS); conditions: for behaviour at high humidity: above 70% RH
Source text: Crystalline form A is an anhydrous form of (S)—N-(4-((5-(1,6-dimethyl-1H-pyrazolo[3,4-b]pyridin-4-yl)-3-methyl-4,5,6,7-tetrahydro-1H-pyrazolo[4,3-c]pyridin-1-yl)methyl)bicyclo[2.2.2]octan-1-yl)morpholine-3-carboxamide that is highly crystalline consisting of thin tabular particles.
Crystalline form HA is a hydrated form of (S)—N-(4-((5-(1,6-dimethyl-1H-pyrazolo[3,4-b]pyridin-4-yl)-3-methyl-4,5,6,7-tetrahydro-1H-pyrazolo[4,3-c]pyridin-1-yl)methyl)bicyclo[2.2.2]octan-1-yl)morpholine-3-carboxamide.

[7] = Corrosivity assessment of salt form
Source text: The criteria for selection are toxicological considerations, crystallinity, melting point, hygroscopicity, stability in bulk, compatibility with excipients, pH of aqueous solution, solubility in water and aqueous media, morphology, handling and polymorphic behavior.

Cc1cc(N2CCc3c(c(C)nn3CC34CCC(NC(=O)[C@@H]5COCCN5)(CC3)CC4)C2)c2cnn(C)c2n1 [Form A, (S)—N-(4-((5-(1,6-dimethyl-1H-pyrazolo[3,4-b]pyridin-4-yl)-3-methyl-4,5,6,7-tetrahydro-1H-pyrazolo[4,3-c]pyridin-1-yl)methyl)bicyclo[2.2.2]octan-1-yl)morpholine-3-carboxamide]
form change under dry grinding ([1]; listed as Modification A): stable | form change upon granulation ([1]; granulation with water): partially changed | stability in bulk state and with excipients [2]: good stability | change of crystalline form under compression (XRPD) [3]: No change of crystalline form | physical and chemical stability under light exposure [4]: good physical and chemical stability | water activity (aw) at which form A transforms into form HA [5]: ~0.25 | solubility (Solubility; pH 4.7, aqueous buffer, pH values of 4.7 and below): > 2000 µg/mL | behaviour at high humidity ([6]; listed as form A): transforms into the hydrate crystalline form HA | hygroscopicity ([6]; up to 70% RH): slightly hygroscopic | moisture uptake ([6]; up to 70% RH): 1.3%

Cc1cc(N2CCc3c(c(C)nn3CC34CCC(NC(=O)[C@@H]5COCCN5)(CC3)CC4)C2)c2cnn(C)c2n1 [HCl salt, (S)—N-(4-((5-(1,6-dimethyl-1H-pyrazolo[3,4-b]pyridin-4-yl)-3-methyl-4,5,6,7-tetrahydro-1H-pyrazolo[4,3-c]pyridin-1-yl)methyl)bicyclo[2.2.2]octan-1-yl)morpholine-3-carboxamide]
corrosivity [7]: potential corrosivity | behaviour at high humidity [6]: deliquescent

Cc1cc(N2CCc3c(c(C)nn3CC34CCC(NC(=O)[C@@H]5COCCN5)(CC3)CC4)C2)c2cnn(C)c2n1 [Form HA, (S)—N-(4-((5-(1,6-dimethyl-1H-pyrazolo[3,4-b]pyridin-4-yl)-3-methyl-4,5,6,7-tetrahydro-1H-pyrazolo[4,3-c]pyridin-1-yl)methyl)bicyclo[2.2.2]octan-1-yl)morpholine-3-carboxamide]
form change under dry grinding [1]: no form change | form change upon granulation ([1]; ethanol and water as granulation solvent, 25° C., XRPD): no form change | solubility (Solubility; aqueous buffers in bio-relevant media, aqueous buffer): ~4 µg/mL (≈ 7.51 µM) | behaviour at low humidity ([6]; below 20% RH, rehydrates to form HA at 30% RH): dehydrates to a non-characterized anhydrate form | hygroscopicity ([6]; humidities above 30% RH): slightly hygroscopic
